Structures can show the parent of a compound that is named as a salt.
Columns and labels:
[1] = Solubility of cenicriviroc mesylate; format: physicochemical
Excerpt: In one embodiment, the acid addition salt of cenicriviroc is cenicriviroc mesylate, e.g., (S)-8-[4-(2-Butoxyethoxy)phenyl]-1-isobutyl-N-(4-{[(1-propyl-1H-imidazol-5-yl)methyl]sulfinyl}phenyl)-1,2,3,4-tetrahydro-1-benzazocine-5-carboxamide monomethanesulfonoate. In one embodiment, the cenicriviroc mesylate is a crystalline material, such as a pale greenish-yellow crystalline powder.

[2] = Phase 1 CVC and pioglitazone co-administration PK and safety study; format: in vivo, healthy subjects; details: CVC 150 mg QD and PGZ 45 mg QD
Procedure: Plasma samples were collected prior to each dose and over 24 hours at the end of each treatment period. Cmax, Cmin, tmax, and AUC0-tau were determined using non-compartmental methods. Geometric means, GMRs and CIs were calculated.

[3] = tested on: adults with CCR5 tropic HIV-1; assay: Study 202 post-hoc APRI and FIB-4 fibrosis index scores; format: in vivo, human
Procedure: APRI and FIB-4 scores were calculated. Change in score category from baseline (BL) to Weeks 24 and 48 was assessed in patients with non-missing data. Correlations between changes from BL in APRI and FIB-4 scores, and MCP-1 (CCR2 ligand) and sCD14 (inflammatory biomarker) levels were evaluated.

[4] = tested on: HIV-1 infected adult subjects; assay: Study 202 biomarkers of inflammation; format: in vivo, human
Procedure: As an exploratory analysis, levels of inflammation biomarkers MCP-1, sCD14, high sensitivity C-reactive protein [hs-CRP], interleukin-6 [IL-6], D-dimer, and fibrinogen) were measured. Baseline values and changes from baseline at Week 24 and Week 48 of MCP-1, sCD14, hs-CRP, IL-6, D-dimer, and fibrinogen are summarized in Table 22.
The sCD14 samples were originally analyzed in 2 separate batches: Batch 1 included samples leading up to the Week 24 primary analysis and Batch 2 included Week 32 and Week 48 (end of study) samples. A repeat analysis of archived samples all analyzed in one batch was conducted for consistency in analysis across time points. To control for the effects of covariates, a linear mixed-model repeated-measures analysis was conducted on the changes from baseline in sCD14 (analysis dated September 2013).

## CCCCOCCOc1ccc(-c2ccc3c(c2)C=C(C(=O)Nc2ccc([S@@+]([O-])Cc4cncn4CCC)cc2)CCCN3CC(C)C)cc1 [cenicriviroc mesylate, (S)-8-[4-(2-Butoxyethoxy)phenyl]-1-isobutyl-N-(4-{[(1-propyl-1H-imidazol-5-yl)methyl]sulfinyl}phenyl)-1,2,3,4-tetrahydro-1-benzazocine-5-carboxamide monomethanesulfonoate]
[1]; 99.5% ethanol
  solubility: sparingly soluble
[1]; acetonitrile, 1-octanol, tetrahydrofuran
  solubility: slightly soluble
[1]; aqueous solution at pH 3
  solubility: sparingly soluble
[1]; aqueous solution from pH 1 to 2
  solubility: freely soluble
[1]; ethyl acetate and diethylether
  solubility: practically insoluble
[1]; glacial acetic acid, methanol, benzyl alcohol, dimethylsulfoxide, N,N-dimethylformamide
  solubility: freely soluble
[1]; pH 4 to 13 and in water
  solubility: practically insoluble
[1]; pyridine and acetic anhydride
  solubility: soluble

## CCc1ccc(CCOc2ccc(CC3SC(=O)NC3=O)cc2)nc1 (centres unmarked) [PGZ, Pioglitazone, reference compound]
[2]
  Cmin on co-administration: remained unchanged
  steady-state Cmax and AUC0-tau on co-administration: modest decrease

## O=C1Nc2ccc(Cl)cc2[C@@](C#CC2CC2)(C(F)(F)F)O1 [EFV, efavirenz, reference compound]
[3]; Baseline
  subjects with APRI 0.5-1.5: 4%
  subjects with APRI <0.5: 96%
  subjects with FIB-4 <1.45: 100%
[3]; Week 24
  subjects with APRI <0.5: 100%
  subjects with APRI decreased 1 category from baseline: 5%
  subjects with FIB-4 <1.45: 100%
[3]; Week 48
  subjects with APRI <0.5: 100%
  subjects with APRI decreased 1 category from baseline: 6%
  subjects with FIB-4 1.45-3.25: 6%
  subjects with FIB-4 <1.45: 94%
[4]; CVC 100 mg and 200 mg, EFV, up to Week 48
  plasma MCP-1 over time: remained at baseline values
[4]; EFV 600 mg
  D-dimer Changes from baseline at Week 24, Mean: -53 ng/mL
  D-dimer Changes from baseline at Week 24, Median: -26 ng/mL
  D-dimer Changes from baseline at Week 48, Mean: -34 ng/mL
  D-dimer Changes from baseline at Week 48, Median: 0.0 ng/mL
  Fibrinogen Changes from baseline at Week 24, Mean: -28 mg/dL
  Fibrinogen Changes from baseline at Week 24, Median: -31 mg/dL
  Fibrinogen Changes from baseline at Week 48, Mean: -30 mg/dL
  Fibrinogen Changes from baseline at Week 48, Median: -22 mg/dL
  IL-6 Changes from baseline at Week 24, Mean: -8.72 pg/mL
  IL-6 Changes from baseline at Week 24, Median: 0.00 pg/mL
  IL-6 Changes from baseline at Week 48, Mean: -13.11 pg/mL
  IL-6 Changes from baseline at Week 48, Median: 0.00 pg/mL
  MCP-1 Changes from baseline at Week 24, Mean: -44 pg/mL
  MCP-1 Changes from baseline at Week 24, Median: -17 pg/mL
  MCP-1 Changes from baseline at Week 48, Mean: 4.2 pg/mL
  MCP-1 Changes from baseline at Week 48, Median: 33.6 pg/mL
  hs-CRP Changes from baseline at Week 24, Mean: -0.46 mg/dL
  hs-CRP Changes from baseline at Week 24, Median: -0.01 mg/dL
  hs-CRP Changes from baseline at Week 48, Mean: -0.71 mg/dL
  hs-CRP Changes from baseline at Week 48, Median: -0.03 mg/dL
[4]; EFV 600 mg, original values
  sCD14 Changes from baseline Week 32, Mean: 480000 pg/mL
  sCD14 Changes from baseline Week 32, Median: 170000 pg/mL
  sCD14 Changes from baseline at Week 12, Mean: 90000 pg/mL
  sCD14 Changes from baseline at Week 12, Median: 1.8e+07 pg/mL
  sCD14 Changes from baseline at Week 24, Mean: 230000 pg/mL
  sCD14 Changes from baseline at Week 24, Median: 130000 pg/mL
  sCD14 Changes from baseline at Week 48, Mean: 640000 pg/mL
  sCD14 Changes from baseline at Week 48, Median: 460000 pg/mL
[4]; both CVC treatment arms, EFV arm
  sCD14 over 48 weeks of treatment (linear mixed-model analysis of repeat sCD14 analysis): increase

— US20200000772A1, “CENICRIVIROC COMBINATION THERAPY FOR THE TREATMENT OF FIBROSIS” (Tobira Therapeutics, Inc., priority 2014, published 2020)
